Experimental data reported in article PMC9546084, “Effects of Unsuppressed Endogenous Insulin on Pharmacokinetics and/or Pharmacodynamics of Study Insulin in the Healthy: A Retrospective Study” (Clinical Pharmacology in Drug Development, 2022).

Tests used:
[1] = PK corrected by C-peptide; cited from earlier work
Experimental: In studies in which specific assays for the tested insulin are lacking, C‐peptide was always used to correct endogenous insulin.[37], [38] Some researchers[39] still doubted the use of C‐peptide to correct endogenous insulin because some PK parameters were not consistent (eg, a peak of glargine in plasma occurring at 12 hours[40] differs from those observed in subjects with type 1 diabetes where the increase occurs between ≈3 and 6 hours after the first injection[41] and at steady state[42]). Owens[19] reported the exogenous insulin estimated from C‐peptide was nearly the same as what was true ...

[2] = adverse reactions/events during clamp and follow-up; type: in vivo, healthy Chinese male volunteers; conditions: 33 healthy men; 0.2 IU/kg s.c.; clamp procedures and follow-up period
Excerpt: Thirty‐three healthy male volunteers (22 in group A and 11 in group B) undergoing a manual euglycemic clamp study were enrolled in this study.

[3] = manual euglycemic clamp, glucose infusion rate (PD) after subcutaneous insulin aspart; type: in vivo, healthy Chinese male volunteers; conditions: for GIRmax (maximum glucose infusion rate): 0.2 IU/kg NovoRapid s.c., 8-hour manual euglycemic clamp; for GIRmax (maximum glucose infusion rate) / tGIRmax (time of GIRmax) / AUCGIR,0-8h: mean ± SD; for GIR AUC from time 0.5 to 2 hours after correction for clamped glucose from 0.5 to 2 hours / AUCGIR,0-8h after correction for the overall clamped glucose / tGIRmax (time of GIRmax) / AUCGIR,0-8h: 0.2 IU/kg s.c.; for AUCGIR,0-8h after correction for the overall clamped glucose: analysis of variance with clamped glucose as covariate; for AUCGIR,0-8h: uncorrected
Experimental: (§1) From 3 days before the dosing day on, participants were instructed to abstain from drinking alcohol, smoking tobacco, engaging in strenuous exercise, and ingesting caffeine. Participants came to the research center at approximately 6:00 PM the day before drug administration to ensure an overnight fasting condition of 10 to 12 hours the next morning. Throughout the clamp, the subjects remained fasting and in a supine position. A 20‐gauge polyethylene cannula was inserted into an antecubital vein for infusion of 20% dextrose, and a second 18‐gauge catheter was inserted retrogradely into a wrist vein on the dorsum of the hand to draw blood. The hand for blood drawing was maintained continuously in a heated blanket at 55 to 65°C, allowing sampling of arterialized venous blood. After recording the basal blood glucose level (defined as the mean of the glucose measurement at −30, −20, and −10 minutes), the subjects received a 0.2 IU/kg dose of NovoRapid (Novo Nordisk, Bagsværd, Denmark) by subcutaneous injection into a lifted abdominal skin fold. Blood samples were obtained at the bedside for immediate determination of whole blood glucose concentrations every 5 minutes from 0 to 240 minutes and every 10 minutes from 240 to 480 minutes. During the manual euglycemic clamp procedure, the glucose infusion rate (GIR) was adjusted on the basis of the obtained glucose measurements to maintain euglycemia. A 4‐mL blood sample was collected at each of the following points for analysis of C‐peptide, human insulin, and IAsp levels: −30 and 0 minutes (before dosing) and 10, 20, 30, 40, 50, 60, 90, 120, 150, 180, 210, 240, 270, 300, 360, 420, and 480 minutes after dosing. The baselines for each of C‐peptide, human insulin, and IAsp were defined as the mean of the −30 and 0 minute (before dosing) measurements.
(§2) Whole blood glucose concentrations were tested with a glucose analyzer (Biosen C_line GP+, Neckar Healthcare, Co., Ltd., Magdeburg, Germany) using an automated glucose oxidase technique with a measuring range of 9 to 900 mg/dL and a high precision of 1.5%. Human insulin levels were determined using an ultrasensitive enzyme‐linked immunosorbent assay (ELISA) with monoclonal antibodies that have little or no cross‐reactivity to insulin analogs whose ranges of quantification were 0.0065 to 0.87 ng/mL for human insulin.[22] C‐peptide levels were analyzed using a solid‐phase 2‐site ELISA method based on the direct sandwich technique in which 2 monoclonal antibodies are directed against separate antigenic determinants on the C‐peptide molecule with a measuring range of 0.06 to 9 ng/mL, with an intra‐assay coefficient of variation of 2.87% to 4.50%.[23] IAsp concentrations were assessed by means of an ultra‐performance liquid chromatography–tandem mass spectrometry method, [25] at Covance Laboratories in Shanghai that had no detectable cross‐reactivity with human insulin. Solid‐phase extraction was performed. Liquid chromatography separation was achieved using an Acquity UPLC CSH C18+ column (50 × 2.1 × 1.7 μm; Waters Corp., Milford, Massachusetts). A 20‐μL injection with a 0.60 mL/min flow of water with 0.1% of acetic acid (solvent A) and acetonitrile with 0.1% of acetic acid (solvent B) was used. The gradient elution was as follows: the initial 17.5% B was increased to 29.5% over 3.0 minutes, 29.5% to 50.0% over 0.5 minutes, 50% to 98% over 0.5 minutes, remained at 98% for 1.5 minutes, and returned to initial conditions over 0.5 minute. A mass spectrometer used in the positive ionization mode (ESI+) was used for the analysis of the compounds. […] The cone voltage and collision energy were adjusted to maximize the intensity of the protonated ion and to optimize the signal of aspart insulin: m/z 1133.4→971.8 and for the internal standard bovine insulin 1123.5→963.8. The lower limit of quantification was 0.2 ng/mL, the inter‐ and intravariability were 7.0% and 7.9%, respectively. […]

[4] = pharmacokinetics of insulin aspart during the euglycemic clamp (UPLC-MS/MS); type: in vivo, healthy Chinese male volunteers; conditions: 0.2 IU/kg s.c., mean ± SD; for CIAsp,max (maximum plasma concentration of IAsp): UPLC-MS/MS
Experimental: as §1, §2

Row | Substance | time of peak of glargine in plasma [1] [h] | adverse reaction after injection [2] | GIRmax (maximum glucose infusion rate) ([3]; group A ((CPpostdosing)max > CPbaseline, n = 22)) [mg/kg/min] | GIR AUC from time 0.5 to 2 hours after correction for clamped glucose from 0.5 to 2 hours ([3]; group A (n = 22)) [mg/kg] | AUCGIR,0-8h after correction for the overall clamped glucose ([3]; group A (n = 22)) [mg/kg] | tGIRmax (time of GIRmax) ([3]; group A (n = 22)) [min] | AUCGIR,0-8h ([3]; group A (n = 22)) [mg/kg] | GIRmax (maximum glucose infusion rate) ([3]; group B ((CPpostdosing)max ≤ CPbaseline, n = 11)) [mg/kg/min] | GIR AUC from time 0.5 to 2 hours after correction for clamped glucose from 0.5 to 2 hours ([3]; group B (n = 11)) [mg/kg] | AUCGIR,0-8h after correction for the overall clamped glucose ([3]; group B (n = 11)) [mg/kg] | tGIRmax (time of GIRmax) ([3]; group B (n = 11)) [min] | AUCGIR,0-8h ([3]; group B (n = 11)) [mg/kg] | CIAsp,max (maximum plasma concentration of IAsp) ([4]; group A (n = 22)) [ng/mL] | AUCIAsp,0-8h ([4]; group A (n = 22)) [ng·min/mL] | time of CIAsp,max ([4]; group A (n = 22)) [min] | CIAsp,max (maximum plasma concentration of IAsp) ([4]; group B (n = 11)) [ng/mL] | AUCIAsp,0-8h ([4]; group B (n = 11)) [ng·min/mL] | time of CIAsp,max ([4]; group B (n = 11)) [min]
1 | glargine | 12 |  |  |  |  |  |  |  |  |  |  |  |  |  |  |  |  | 
2 | insulin aspart [IAsp] |  | no adverse reaction in any subject | 8.46 ± 2.43 | 596 ± 38 | 1789 ± 107 | 111 ± 40.6 | 1815 ± 551 | 7.90 ± 1.68 | 520 ± 56 | 1380 ± 157 | 113 ± 33.9 | 1327 ± 306 | 4.72 ± 1.46 | 527 ± 97.1 | 44.8 ± 11.0 | 5.53 ± 1.61 | 543 ± 97.2 | 47.3 ± 11.0
